# From PubChem BioAssay AID328 (DTP/NCI, 2004)
# Several values for one entry are separate records, joined by “and”; a condition that tells them apart may be missing. Equal entries are not always repeated. Toxic doses and inconclusive results are not listed.
# Tested on: BDF1 mice, P388 leukemia ip, median survival T/C
# Experiment: NCI In Vivo Anticancer Drug Screen. Data for tumor model P388 Leukemia (intraperitoneal) in B6D2F1 (BDF1) mice
# Details: endpoint: median survival time, higher = longer survival
# Outline: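 T/C = treated-group survival ÷ vehicle-control survival; tumour transplanted into mice before dosing.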
# [1] = dose: 12.5 mg/kg/injection, schedule: Q01DX009 (ip), vehicle: saline with Tween-80
# [2] = dose: 100.0 mg/kg/injection, schedule: Q01DX009 (ip), vehicle: Klucel (hydroxypropylcellulose) (HPC)
# [3] = dose: 100.0 mg/kg/injection, schedule: Q04DX003 (ip), vehicle: Klucel (hydroxypropylcellulose) (HPC)
# [4] = dose: 200.0 mg/kg/injection, schedule: Q04DX003 (ip), vehicle: Klucel (hydroxypropylcellulose) (HPC)
# [5] = dose: 400.0 mg/kg/injection, schedule: Q04DX003 (ip), vehicle: Klucel (hydroxypropylcellulose) (HPC)
# [6] = dose: 6.25 mg/kg/injection, schedule: Q01DX009 (ip), vehicle: Klucel (hydroxypropylcellulose) (HPC)
# [7] = dose: 12.5 mg/kg/injection, schedule: Q01DX009 (ip), vehicle: Klucel (hydroxypropylcellulose) (HPC)
# [8] = dose: 25.0 mg/kg/injection, schedule: Q01DX009 (ip), vehicle: Klucel (hydroxypropylcellulose) (HPC)
# [9] = dose: 50.0 mg/kg/injection, schedule: Q04DX003 (ip), vehicle: Klucel (hydroxypropylcellulose) (HPC)
# [10] = dose: 3.12 mg/kg/injection, schedule: Q01DX009 (ip), vehicle: Klucel (hydroxypropylcellulose) (HPC)
# [11] = dose: 100.0 mg/kg/injection, schedule: Q01DX009 (ip), vehicle: saline with Tween-80
# [12] = dose: 200.0 mg/kg/injection, schedule: Q01DX009 (ip), vehicle: saline with Tween-80
# [13] = dose: 400.0 mg/kg/injection, schedule: Q01DX009 (ip), vehicle: saline with Tween-80
# [14] = dose: 50.0 mg/kg/injection, schedule: Q01DX009 (ip), vehicle: saline with Tween-80
# [15] = dose: 100.0 mg/kg/injection, schedule: Q04DX003 (ip), vehicle: saline
# [16] = dose: 200.0 mg/kg/injection, schedule: Q04DX003 (ip), vehicle: saline
# [17] = dose: 400.0 mg/kg/injection, schedule: Q04DX003 (ip), vehicle: saline
compound,measurement,setting,value
CC[CH2][Pb]([CH2]CC)([CH2]CC)[O]C(=O)C(Cl)(Cl)Cl,T/C,"dose: 3.12 mg/kg/injection, schedule: Q01DX009 (ip), vehicle: saline with Tween-80",122 % of control
same,T/C,"dose: 6.25 mg/kg/injection, schedule: Q01DX009 (ip), vehicle: saline with Tween-80",121 % of control
same,T/C,[1],108 % of control
O=[N+]([O-])c1ccc(S(=O)c2ccc([N+](=O)[O-])cc2)cc1,T/C,[2],100 % of control
same,T/C,[3],100 % of control
same,T/C,"dose: 200.0 mg/kg/injection, schedule: Q01DX009 (ip), vehicle: Klucel (hydroxypropylcellulose) (HPC)",95 % of control
same,T/C,[4],100 % of control
same,T/C,[5],100 % of control
NC(=O)C(c1ccccc1)N1CCCCC1 (stereo not drawn),T/C,[6],109 % of control
same,T/C,[7],95 % of control
same,T/C,[8],95 % of control
same,T/C,"dose: 25.0 mg/kg/injection, schedule: Q04DX003 (ip), vehicle: Klucel (hydroxypropylcellulose) (HPC)",104 % of control
same,T/C,"dose: 50.0 mg/kg/injection, schedule: Q01DX009 (ip), vehicle: Klucel (hydroxypropylcellulose) (HPC)",91 % of control
same,T/C,[9],104 % of control
same,T/C,[3],108 % of control
COC1=CC=C2C3Cc4ccc(OC)c(O)c4C2(C1)CN3C (stereo not drawn),T/C,[10],87 % of control
same,T/C,[6],87 % of control
same,T/C,[8],100 % of control
Cc1ccc(N2C(=O)CC(Sc3ccccc3N)C2=O)cc1Cl (stereo not drawn),T/C,[11],110 % of control
same,T/C,"dose: 100.0 mg/kg/injection, schedule: Q04DX003 (ip), vehicle: saline with Tween-80",95 % of control
same,T/C,[12],90 % of control
same,T/C,"dose: 200.0 mg/kg/injection, schedule: Q04DX003 (ip), vehicle: saline with Tween-80",109 % of control
same,T/C,[13],105 % of control
same,T/C,"dose: 400.0 mg/kg/injection, schedule: Q04DX003 (ip), vehicle: saline with Tween-80",109 % of control
C[P+](Cc1ccc([N+](=O)[O-])cc1)(c1ccccc1)c1ccccc1,T/C,"dose: 1.56 mg/kg/injection, schedule: Q01DX009 (ip), vehicle: Klucel (hydroxypropylcellulose) (HPC)",96 % of control
same,T/C,[10],88 % of control
same,T/C,[7],89 % of control
same,T/C,"dose: 12.5 mg/kg/injection, schedule: Q04DX003 (ip), vehicle: Klucel (hydroxypropylcellulose) (HPC)",100 % of control
same,T/C,[9],104 % of control
Cc1nc2c(sc(=N)n2-c2ccccc2)c(=O)[nH]1,T/C,[14],114 % of control
CCOC(=O)N1Cc2cc3ccccc3nc2C1CC(=O)O (stereo not drawn),T/C,[3],100 % of control
same,T/C,[4],100 % of control
same,T/C,[5],104 % of control
Cc1ccccc1C(O)c1ccccc1Cl (stereo not drawn),T/C,"dose: 100.0 mg/kg/injection, schedule: Q01DX001 (ip), vehicle: saline sonified",100 % of control
same,T/C,"dose: 200.0 mg/kg/injection, schedule: Q01DX001 (ip), vehicle: saline sonified",100 % of control
same,T/C,"dose: 400.0 mg/kg/injection, schedule: Q01DX001 (ip), vehicle: saline sonified",100 % of control
CCOC(=O)CCC1(CCC(=O)OCC)OCCO1,T/C,[11],91 % of control
same,T/C,[15],95 % of control
same,T/C,[12],95 % of control
same,T/C,[16],109 % of control
same,T/C,[13],108 % of control
same,T/C,[17],109 % of control
CC(=O)c1ccc(NC(=O)N(CCCl)N=O)cc1,T/C,"dose: 0.29 mg/kg/injection, schedule: Q04DX003 (ip), vehicle: Klucel (hydroxypropylcellulose) (HPC)",118 % of control
same,T/C,"dose: 0.43 mg/kg/injection, schedule: Q04DX003 (ip), vehicle: Klucel (hydroxypropylcellulose) (HPC)",113 % of control
same,T/C,"dose: 0.99 mg/kg/injection, schedule: Q04DX003 (ip), vehicle: saline",150 % of control
same,T/C,"dose: 18.75 mg/kg/injection, schedule: Q04DX003 (ip), vehicle: Klucel (hydroxypropylcellulose) (HPC)",218 % of control
same,T/C,"dose: 24.75 mg/kg/injection, schedule: Q04DX003 (ip), vehicle: Klucel (hydroxypropylcellulose) (HPC)",204 % of control
same,T/C,"dose: 37.5 mg/kg/injection, schedule: Q04DX003 (ip), vehicle: Klucel (hydroxypropylcellulose) (HPC)",236 % of control and 90 % of control
same,T/C,"dose: 56.25 mg/kg/injection, schedule: Q04DX003 (ip), vehicle: Klucel (hydroxypropylcellulose) (HPC)",109 % of control
same,T/C,"dose: 75.0 mg/kg/injection, schedule: Q04DX003 (ip), vehicle: Klucel (hydroxypropylcellulose) (HPC)",122 % of control
C(#Cc1ccccc1)COCC1CO1 (stereo not drawn),T/C,[11],116 % of control
same,T/C,[15],90 % of control
same,T/C,[16],90 % of control
same,T/C,[17],120 % of control
O=c1oc2ccccc2cc1-c1csc(/C=N/N2CCOCC2)n1,T/C,[14],113 % of control
same,T/C,[11],104 % of control
CCOC1=C(N2CC2)C(=O)C(OCC)=C(N2CC2)C1=O,T/C,"dose: 0.07 mg/kg/injection, schedule: Q01DX009 (ip), vehicle: saline with Tween-80",95 % of control
same,T/C,"dose: 0.25 mg/kg/injection, schedule: Q01DX009 (ip), vehicle: saline",165 % of control
same,T/C,"dose: 0.25 mg/kg/injection, schedule: Q04DX003 (ip), vehicle: saline",109 % of control
same,T/C,"dose: 0.3 mg/kg/injection, schedule: Q01DX009 (ip), vehicle: saline with Tween-80",122 % of control
same,T/C,"dose: 0.5 mg/kg/injection, schedule: Q01DX009 (ip), vehicle: saline",152 % of control and 190 % of control
same,T/C,"dose: 0.5 mg/kg/injection, schedule: Q04DX003 (ip), vehicle: saline",154 % of control
same,T/C,"dose: 0.6 mg/kg/injection, schedule: Q01DX009 (ip), vehicle: saline with Tween-80",153 % of control
same,T/C,"dose: 0.63 mg/kg/injection, schedule: Q04DX003 (ip), vehicle: saline",122 % of control
same,T/C,"dose: 1.0 mg/kg/injection, schedule: Q01DX009 (ip), vehicle: saline",245 % of control and 195 % of control
same,T/C,"dose: 1.0 mg/kg/injection, schedule: Q04DX003 (ip), vehicle: saline",200 % of control
same,T/C,"dose: 2.0 mg/kg/injection, schedule: Q01DX009 (ip), vehicle: saline",242 % of control and 105 % of control
same,T/C,"dose: 2.5 mg/kg/injection, schedule: Q04DX003 (ip), vehicle: saline",172 % of control
same,T/C,"dose: 4.0 mg/kg/injection, schedule: Q01DX009 (ip), vehicle: saline",114 % of control
Cn1ncc2c(N)ncnc21,T/C,"dose: 0.75 mg/kg/injection, schedule: Q01DX009 (ip), vehicle: Klucel (hydroxypropylcellulose) (HPC)",100 % of control
same,T/C,"dose: 1.5 mg/kg/injection, schedule: Q01DX009 (ip), vehicle: Klucel (hydroxypropylcellulose) (HPC)",100 % of control
same,T/C,"dose: 3.0 mg/kg/injection, schedule: Q01DX009 (ip), vehicle: Klucel (hydroxypropylcellulose) (HPC)",109 % of control
same,T/C,"dose: 6.0 mg/kg/injection, schedule: Q01DX009 (ip), vehicle: Klucel (hydroxypropylcellulose) (HPC)",122 % of control
NC(=S)N/N=C/c1cc(-c2cccc(N)c2)ccn1,T/C,[1],154 % of control
same,T/C,"dose: 25.0 mg/kg/injection, schedule: Q01DX009 (ip), vehicle: saline with Tween-80",162 % of control
same,T/C,[14],211 % of control
same,T/C,"dose: 75.0 mg/kg/injection, schedule: Q01DX009 (ip), vehicle: saline with Tween-80",178 % of control
CC(C)(C)C1=CC(C(C)(C)C)CCC1=O (stereo not drawn),T/C,"dose: 50.0 mg/kg/injection, schedule: Q01DX009 (ip), vehicle: saline",86 % of control
same,T/C,"dose: 75.0 mg/kg/injection, schedule: Q04DX003 (ip), vehicle: saline",110 % of control
same,T/C,"dose: 100.0 mg/kg/injection, schedule: Q01DX009 (ip), vehicle: saline",109 % of control
same,T/C,"dose: 150.0 mg/kg/injection, schedule: Q04DX003 (ip), vehicle: saline",110 % of control
same,T/C,"dose: 200.0 mg/kg/injection, schedule: Q01DX009 (ip), vehicle: saline",118 % of control
same,T/C,"dose: 300.0 mg/kg/injection, schedule: Q04DX003 (ip), vehicle: saline",120 % of control
CC1=C/C(O)CC(=O)Cc2nc(co2)C(=O)N2CCC=C2C(=O)OC(C(C)C)C(C)/C=C\C(=O)NC/C=C\1 (stereo not drawn),T/C,[2],118 % of control
same,T/C,"dose: 0.5 micrograms/kg/injection, schedule: Q01DX009 (ip), vehicle: saline",105 % of control
same,T/C,"dose: 1.0 micrograms/kg/injection, schedule: Q01DX009 (ip), vehicle: saline",101 % of control
same,T/C,"dose: 2.0 micrograms/kg/injection, schedule: Q01DX009 (ip), vehicle: saline",108 % of control
same,T/C,"dose: 4.0 micrograms/kg/injection, schedule: Q01DX009 (ip), vehicle: saline",101 % of control
